Data published in patent US20080089860A1, “Therapeutic compositions and methods useful in treating cancer” (priority 2006, published 2008).

Key:
PRL-3 = target: T1, PRL-3 (Homo sapiens, UniProt O75365); experiment: In vitro PTPase assay, recombinant PRL-3; format: biochemical; conditions: for PRL-3 PTPase activity remaining: 0.1-100 μg/ml
T1 construct: made in house; host or cells: E. coli DH5a
Description: Sodium stibogluconate, suramin, sodium orthovanadate and GST fusion protein of SHP-1 have been described previously (Pathak et al., J. Imumol. 167, 3391 (2001)). Meglumine antimonate was obtained from Aventis. cDNAs of human PRL-1, PRL-2 and PRL-3 coding region were derived by RT-PCR from H9 cells (Safai, et al., Lancet 1, 1438 (1984)) and inserted in frame into the pGEX vector. cDNA of PRL-1R86 was generated by recombinant DNA technique using PRL-1 cDNA as template following established procedures (Jiao, et al., Mol. Cell. Biol. 16, 6985 (1996)). GST fusion proteins of the PRL phosphatases were prepared from DH5a bacteria transformed with the pGEX fusion protein constructs as described previously (Yi, et al., Mol. Cell. Biol. 12, 836 (1992)). cDNAs encoding the PRLs tagged at the N-termini with the Flag epitope (Castrucci, et al., J. Virol. 66, 4647 (1992)) were generated via recombinant DNA technique, sequenced to confirm their identities and cloned into the pBabepuro vector (Yang, et al., Blood 91, 3746 (1998)). Anti-Flag monoclonal antibody (M2, Sigma) was purchased from a commercial source. A synthetic phosphotyrosine peptide (Arg-Arg-Leu-Ile-Glu-Asp-Ala-Gle-Tyr-Al- -a-Ala-Arg-Gly (SEQ ID NO: 3), wherein the tyrosine is phosphorylated; UBI) and DiFMUP (6,8-difluoro-4-methylumbelliferyl phosphate, Molecular Probes) were purchased as substrates for PTPase assays.
(§1) In vitro PTPase assays were used to determine the effects of compounds on recombinant PTPases, following established procedures using a synthetic phosphotyrosine peptide or DiFMUP as the substrate (Pathak et al., J. Imumol. 167, 3391 (2001)). Briefly, individual PTPases (0.1 µg/reaction) in 50 µL of PTPase buffer (50 mM Tris, pH 7.4) were incubated at 22° C. for 10 minutes or as indicated in the absence or presence of inhibitory compounds. Substrates (0.2 mM phosphotyrosine peptide) were then added and allowed to react at 22° C. for 18 hrs. PTPase activity of individual reactions was measured by adding 100 µL of malachite green solution (UBI) and then quantifying the amounts of free phosphate cleaved by the PTPase from the peptide substrate by spectrometry (OD660 nm). PTPase assays using DiFMUP as a substrate were conducted following a previously described procedure (Matter, et al., Biochem. Biophys. Res. Comm. 283, 1061 (2001)). Relative PTPase activities were calculated based on the formula: (PTPase activity in the presence of an inhibitory compound/PTPase activity in the absence of the compound)× 100%. To assess the reversibility of PTPase inhibition, GST fusion proteins of the PTPases bound on glutathione beads (Pharmacia) were pre-incubated with cold Tris buffer (50 mM Tris, pH 7.0) or Tris buffer containing the inhibitor at 4° C. for 30 minutes. The beads were then washed three times in cold Tris buffer or not washed prior to subjecting to in vitro PTPase assays.

SHP-1 = target: T2, SHP-1 (Mus musculus, UniProt P29351); experiment: In vitro PTPase assay, GST/SHP-1; format: biochemical; conditions: for inhibitory activity against SHP-1: 3-4 μg/ml or 10-100 μg/ml
T2 construct: made in house
T2 sequence (P29351 whole entry): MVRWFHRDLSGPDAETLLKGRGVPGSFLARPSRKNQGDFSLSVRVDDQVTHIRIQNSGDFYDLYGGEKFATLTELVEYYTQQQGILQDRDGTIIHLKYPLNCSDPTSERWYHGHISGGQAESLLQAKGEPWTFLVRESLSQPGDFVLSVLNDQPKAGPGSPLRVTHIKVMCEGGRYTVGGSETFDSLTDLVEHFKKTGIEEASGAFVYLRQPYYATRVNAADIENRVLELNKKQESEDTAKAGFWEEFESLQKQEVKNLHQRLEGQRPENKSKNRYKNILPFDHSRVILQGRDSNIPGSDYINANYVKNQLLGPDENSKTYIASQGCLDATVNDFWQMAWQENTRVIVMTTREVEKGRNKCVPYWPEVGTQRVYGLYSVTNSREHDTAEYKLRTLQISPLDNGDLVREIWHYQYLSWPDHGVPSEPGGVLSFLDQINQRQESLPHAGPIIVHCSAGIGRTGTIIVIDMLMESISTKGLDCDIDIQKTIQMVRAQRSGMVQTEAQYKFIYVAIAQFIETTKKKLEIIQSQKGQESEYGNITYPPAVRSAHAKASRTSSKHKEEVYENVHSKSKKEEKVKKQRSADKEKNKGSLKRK
Description: In vitro PTPase activities were measured using the commercial protein tyrosine phosphatase assay kit (Upstate Biotechnology, Inc. (“UBI”)) following established procedure known to one of skill in the art. […] Briefly, 0.01 µg of GST/PTPase fusion proteins was incubated in 50 µl of Tris buffer (10 mM Tris, pH 7.4) containing different concentrations of inhibitors or chemicals (0-1,000 µg/ml) at 22° […] 100 µl of Malachite Green solution was added and incubated for 5 minutes, and the absorbance at 660 nm was measured after 5 minutes.
To assess the reversibility of inhibition of SHP-1 by PTPase inhibitors, GST/SHP-1 fusion protein bound on glutathione beads were pre-incubated in cold Tris buffer or Tris buffer containing the PTPase inhibitors at 4° C. for 30 minutes. The beads were then either subjected to in vitro PTPase assays or washed 3 times in Tris buffer then subjected to in vitro PTPase assays.
as §1, with “Briefly,” for “In vitro PTPase assays were used to determine the effects of compounds on recombinant PTPases, following established procedures using a synthetic phosphotyrosine peptide or DiFMUP as the substrate (Pathak et al., J. Imumol. 167, 3391 (2001)). Briefly,”, “PTPase assays using DiFMUP as a substrate were conducted following a previously described procedure (Matter, et al., Biochem. Biophys. Res. Comm. 283, 1061 (2001)).” left out

T1 sequence (O75365 whole entry): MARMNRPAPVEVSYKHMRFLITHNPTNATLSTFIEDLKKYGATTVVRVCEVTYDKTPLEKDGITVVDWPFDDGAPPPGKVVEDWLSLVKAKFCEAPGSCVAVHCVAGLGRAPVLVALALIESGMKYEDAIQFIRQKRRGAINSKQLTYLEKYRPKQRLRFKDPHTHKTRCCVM

CC(=O)N1CCN(c2ccc(OCC3COC(Cn4ccnc4)(c4ccc(Cl)cc4Cl)O3)cc2)CC1 (stereo not drawn) [ketoconazole]
PRL-3 PTPase activity remaining (PRL-3): 25-40% | inhibitory activity against SHP-1 (SHP-1): no obvious inhibitory activity

N=C(N)c1ccc(OCCCCCOc2ccc(C(=N)N)cc2)cc1 [pentamidine]
PRL-3 PTPase activity remaining (PRL-3): 20-30% | inhibitory activity against SHP-1 (SHP-1): no obvious inhibitory activity

O.O.O.O.O.O.O.O.O.O=C([O-])[C@@H]1[O][Sb]2([O-])([O][Sb]34([OH])[O][C@H]([C@H](O)CO)[C@H]([O]3)[C@H](C(=O)[O-])[O]4)[O][C@H]([C@H](O)CO)[C@@H]1[O]2.[Na+].[Na+].[Na+] [sodium stibogluconate]
inhibition of PRL-3 after washing (PRL-3): not relieved by a washing process | inactivation of PRL-3 (PRL-3; 10 μg/ml, pre-incubation 30 or 60 minutes): nearly complete inactivation | activity against recombinant SHP-1 (SHP-1; HPLC fractions, parental mixture at Sb 10 μg/ml): inactivated SHP-1 | dephosphorylation of pNPP by these PTPases (SHP-1; pNPP substrate, SHP-1, SHP-2 and PTP1B): similarly inhibited | inhibition of GST/SHP-1 after washing (reversibility) (SHP-1; pre-incubated with inhibitor, beads washed): not affected by washing
